Data taken from PMC8393474, “The Interaction of Hemin, a Porphyrin Derivative, with the Purified Rat Brain 2-Oxoglutarate Carrier” (Biomolecules, 2021).

Target: T1, 2-oxoglutarate carrier (OGC) (Rattus norvegicus, UniProt P97700)
T1 construct: gene Slc25a11; native carrier purified from rat brain mitochondria, reconstituted into proteoliposomes
T1 sequence (P97700 2-314): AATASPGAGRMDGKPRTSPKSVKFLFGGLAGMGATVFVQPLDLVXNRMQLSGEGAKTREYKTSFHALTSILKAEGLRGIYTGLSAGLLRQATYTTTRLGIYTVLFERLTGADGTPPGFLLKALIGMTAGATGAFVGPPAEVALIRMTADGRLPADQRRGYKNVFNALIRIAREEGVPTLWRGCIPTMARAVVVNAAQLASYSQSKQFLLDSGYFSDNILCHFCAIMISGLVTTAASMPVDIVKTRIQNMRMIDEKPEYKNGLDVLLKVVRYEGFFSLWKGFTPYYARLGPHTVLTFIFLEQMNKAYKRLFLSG
Assay: inhibition of […] 2-oxoglutarate or […] malate uptake in proteoliposomes reconstituted with purified OGC; Lineweaver-Burk and Dixon plots
Format: biochemical

In the case of `C=CC1=C(C)C2=Cc3c(C=C)c(C)c4[n]3[Fe]([Cl])[n]3c(c(C)c(CCC(=O)O)c3=CC3=NC(=C4)C(C)=C3CCC(=O)O)=CC1=N2` [hemin], the IC50 is reported as 1580 ± 220 nM.
